{
  "source": "patent US20100291034A1",
  "about": "“COMBINATIONS OF HCV PROTEASE INHIBITOR(S) AND CYP3A4 INHIBITOR(S), AND METHODS OF TREATMENT RELATED THERETO” (Schering Corporation, priority 2006, published 2010)",
  "key": {"HCV [1]": {"system": "HCV", "assay": "EC90 of Formula XIVa used as plasma concentration threshold", "conditions": "Hepatitis C virus"}, "[2]": {"assay": "Clinical study: effect of ketoconazole or ibuprofen on the pharmacokinetics of Formula Ia", "assay_type": "in vivo, human", "conditions": "for AUC / half-life: human, plasma, po, 400 mg", "procedure": "The study was conducted in an open-label, randomized, 3-period, 2-sequence crossover manner (FIG. 2). During Period 1, all 12 human subjects were administered a single 400 mg dose of Formula Ia. During Periods 2 and 3, human subjects received multiple doses of interacting drug, either ketoconazole (400 mg BID) or ibuprofen (600 mg TID) in a randomized sequence. The interacting drug was administered beginning on Day 1 (3 days prior to Formula Ia administration) and continued through Day 6. A single dose of Formula Ia was administered on Day 4 (2 hours after administration of the AM dose of interacting drug). Plasma samples for pharmacokinetic and metabolite analyses of Formula Ia was collected at predose (0 hour), 0.5, 1, 1.5, 2, 2.5, 3, 4, 5, 6, 7, 8, 9, 10, 12, 24, 36, 48, and 72 hour postdose for each period. (The 48 and 72 hour postdose samples for Period 1 was collected in an outpatient setting). In Periods 2 and 3, additional blood samples were collected immediately prior to dosing of the Formula Ia on Day 4 and two hours post ketoconazole/ibuprofen administration on Day 5 for determination of ketoconazole or ibuprofen concentration. • Treatment A: Formula Ia (4×100 mg capsules); single dose, P.O following an overnight fast, administered on Day 1 or Period 1. • Treatment B: Ketoconazole 400 mg; PO, administered BID from Day 1 to Day 6, Formula Ia (4×100 mg capsules); single dose, PO following an overnight fast, administered on Day 4 (2 hours after the AM ketoconazole dose). • Treatment C: Ibuprofen 600 mg; PO, TID from Day 1 to Day 6 Formula Ia (4×100 mg capsules); single dose, PO following an overnight fast, administered on Day 4 (2 hours after the AM ibuprofen dose).\nHuman subjects received a single dose of Formula Ia on Day 1 of Period 1. In Period 2 and Period 3, human subjects were treated for 6 days with either ketoconazole or ibuprofen and received a single dose of Formula Ia on Day 4 of each period. There were at least 7 days between administration of Formula Ia in Period 1 and Period 2 and at least 14 days between administration of Formula Ia in Period 2 and 3.\nThe proportion of human subjects with plasma concentrations above the in vitro IC50 and IC90 for the HCV replicon at each time point was determined. This plasma concentration data was used to estimate the following primary pharmacokinetic variables for the determination of bioavailability comparisons: • AUC(tf)—Area under the plasma concentration-time curve from Time 0 […]. • Cmax—Maximum observed plasma concentration. • Tmax—Time to maximum observed plasma concentration. • t½—Terminal phase half-life."}, "[3]": {"assay": "Clinical study: pharmacokinetics of Formula Ia administered in combination with ritonavir", "assay_type": "in vivo, human", "procedure": "This study was an open-label, randomized, 2-period fixed-sequence, multiple-dose study (FIG. 4). The safety of coadministration of Formula Ia and ritonavir, as well as the quantitation of the ability of ritonavir to enhance Formula Ia PK parameters (specifically trough concentration values) in healthy human subjects was explored. A dose of 400 mg TID of Formula Ia coadministered with ritonavir was selected, as we have substantial safety and PK data available with Formula Ia administered alone at 400 mg TID and 800 TID for comparison. The dose selected of ritonavir was at a level to inhibit CYP3A4 and below the therapeutic dose for HIV. […] In this study, the effect of ritonavir on Formula Ia was examined as a low dose (100 mg) at two different dosing frequencies (i.e., once in the morning (QAM) and twice a day (BID)), which are commonly administered in HIV therapy. Based upon the findings of these regimens, subsequent regimens may be explored, with modification of the Formula Ia and/or ritonavir component(s). Human subjects received Formula Ia alone for 5 days in order to achieve steady-state. Human subjects were then randomized to receive one of two treatment regimens in which ritonavir was coadministered with Formula Ia (Formula Ia for 10 days, ritonavir administered for 12 days). Steady-state PK samples for Formula Ia were collected on Day 5 (Formula Ia alone), and on Day 15 (Formula Ia+ritonavir) and the PK parameters (primarily trough concentrations values) compared. […] In Period 1, all 16 human subjects received Treatment A and in Period 2 human subjects were randomized to either Treatment B or Treatment C (8 human subjects/treatment). […] Treatment A: Formula Ia 400 mg TID, every 8 hours) (Q8° following a meal or snack. Period 2 (Days 6 to 17): Treatment B: Formula Ia 400 mg TID (Q8°, Days 6 to 15), ritonavir 100 mg QAM (Days 6 to 17), following a meal or snack; Treatment C: Formula Ia 400 mg BID, every 12 hours ([…]°), (Days 6 to 15), ritonavir 100 mg BID, […]° (Days 6 to 17), following a meal or snack. Formula Ia (2×200 mg 3% SLS containing capsules), PO, TID, following a meal or snack. Formula Ia (2×200 mg 3% SLS containing capsules), PO, BID, following a meal or snack. Ritonavir (1×100 mg capsules), PO, QAM, following a meal or snack. Ritonavir (1×100 mg capsules), PO, BID, following a meal or snack. The trough levels after multiple-dosing of Formula Ia alone (Day 5) and after multiple-dosing of Formula Ia in combination with ritonavir (Day 15) were compared. […] AUC, Cmax, Cmin, and Tmax. […] The primary pharmacokinetic parameter is Cmin. The secondary parameters are Cmax and AUC. The log transformed pharmacokinetic parameters including Cmin, AUC, and Cmax were statistically analyzed using ANOVA model extracting effects due to treatment and human subject. […] The corresponding 90% confidence intervals were also provided. There is no intention to compare Treatments B and C to each other. • Treatment A: Formula Ia 400 mg TID (Q8°) following a meal or snack. Period 2 (Days 6 to 17). • Treatment B: Formula Ia 400 mg TID (Q8°, Days 6 to 15), ritonavir 100 mg QAM (Days 6 to 17) following a meal or snack. • Treatment C: Formula Ia 400 mg BID ([…]° Days 6 to 15), ritonavir 100 mg BID ([…]°, Days 6 to 17) following a meal or snack."}, "human liver cytosol": {"system": "human liver cytosol", "assay": "Incubation of compound Formula Ia or Formula XXVII in human liver cytosol with AKR inhibitor or CYP3A4 inhibitor (formation of M+2 metabolite, LC-MS)", "assay_type": "in vitro ADME", "procedure": "Prior to the addition of drug, the incubation mixture was preincubated for 2 min at 37° C. […] Human liver microsomes and cytosol without NADPH served as negative controls. Parallel incubations with the compound of Formula Ia were used as positive controls. […] All incubations were performed as described previously for human liver cytosols. […] Parallel incubations with the compound of Formula Ia were used as positive controls."}, "[4]": {"assay": "Exposure multiple of Formula Ia, most sensitive animal species versus humans", "assay_type": "in vivo", "conditions": "most sensitive animal species compared with mean exposure in humans receiving 400 mg TID"}, "[5]": {"assay": "Exposure to Formula Ia when coadministered with food", "assay_type": "in vivo"}, "[6]": {"conditions": "in vivo; cited from earlier work"}, "HCV [7]": {"system": "HCV", "conditions": "HCV positive patients, Nelson et al. 2003; cited from earlier work"}, "[8]": {"conditions": "Mean (% CV), plasma Formula Ia, single 400 mg dose PO, human subjects"}, "[9]": {"conditions": "co-administering ketoconazole with Formula Ia"}},
  "note": "Where two headings read alike, the source gives them in different places.",
  "data": [
    {"molecule": "CCCCC(NC(=O)[C@@H]1[C@@H]2[C@H](CN1C(=O)[C@@H](NC(=O)NC1(CS(=O)(=O)C(C)(C)C)CCCCC1)C(C)(C)C)C2(C)C)C(=O)C(=O)NC1CC1", "note": "(some centres unmarked) [Formula XIVa]", "values": [
      {"measurement": "EC90", "setting": "HCV [1]", "result": 0.03, "unit": "µg/mL"}
    ]},
    {"molecule": "CC(C)(C)NC(=O)N[C@H](C(=O)N1CC2C([C@H]1C(=O)NC(CC1CCC1)C(=O)C(N)=O)C2(C)C)C(C)(C)C", "note": "(some centres unmarked) [Formula Ia]", "values": [
      {"measurement": "Cmax", "setting": "[2]; Mean (% CV), plasma Formula Ia, single 400 mg dose PO, fasted human subjects, alone or with ketoconazole 400 mg BID or ibuprofen 600 mg TID", "result": 571, "unit": "ng/mL"},
      {"measurement": "AUC(0-t)", "setting": "[2]; [8]", "result": 2000, "unit": "ng·h/mL"},
      {"measurement": "C8", "setting": "[2]; [8]", "result": "48.0 (38)"},
      {"measurement": "MRT", "setting": "[2]; [8]", "result": 6.57, "unit": "h"},
      {"measurement": "increase in Cmax (average)", "setting": "[2]; [9]", "result": 40, "unit": "%"},
      {"measurement": "increase of overall exposure (AUC)", "setting": "[2]; [9]", "result": "more than 2 fold"},
      {"measurement": "increase of trough concentration (C8)", "setting": "[2]; [9]", "result": "approximately 3 fold"},
      {"measurement": "increase in the bioavailability of Formula Ia", "setting": "[2]; coadministration of ketoconazole compared to monotherapy of Formula Ia alone", "result": 2, "unit": "fold"},
      {"measurement": "mean residence time (MRT) and effective half-life", "setting": "[2]; effect of ketoconazole", "result": "increased"},
      {"measurement": "AUC", "setting": "[2]; Mean (% CV), plasma Formula Ia, single 400 mg dose PO, human subjects, read-out: AUC(l)", "result": 2070, "unit": "ng·h/mL"},
      {"measurement": "AUC", "setting": "[2]; Mean (% CV), plasma Formula Ia, single 400 mg dose PO, human subjects, read-out: AUCall", "result": 2040, "unit": "ng·h/mL"},
      {"measurement": "half-life", "setting": "[2]; Mean (% CV), plasma Formula Ia, single 400 mg dose PO, human subjects, read-out: t½ (converted)", "result": 9.11, "unit": "h"},
      {"measurement": "half-life", "setting": "[2]; Mean (% CV), plasma Formula Ia, single 400 mg dose PO, human subjects, read-out: t½ eff (converted)", "result": 3.3, "unit": "h"},
      {"measurement": "Tmax", "setting": "[2]; median, plasma Formula Ia, single 400 mg dose PO, human subjects", "result": 1.75, "unit": "h"},
      {"measurement": "C8", "setting": "[3]; Mean PK (% CV), Formula Ia TID (400 mg) alone, Day 5", "result": "104 (31)"},
      {"measurement": "effect on the PK parameters examined", "setting": "[3]; coadministration with 100 mg ritonavir QD or BID compared to monotherapy of Formula Ia alone", "result": "no effect"},
      {"measurement": "Tmax", "setting": "[3]; human, plasma, oral, Mean PK (% CV), Formula Ia TID (400 mg) alone, Day 5", "result": 2.13, "unit": "h"},
      {"measurement": "AUC", "setting": "[3]; human, plasma, oral, Mean PK (% CV), Formula Ia TID (400 mg) alone, Day 5, read-out: AUC8", "result": 4120, "unit": "ng·h/mL"},
      {"measurement": "Cmax", "setting": "[3]; plasma, oral, Mean PK (% CV), Formula Ia TID (400 mg) alone, Day 5, with food, healthy human subjects", "result": 1360, "unit": "ng/mL"},
      {"measurement": "1ST PARENT PEAK AREA", "setting": "human liver cytosol; HL Cytosol w/ NADPH + 2 uM Ritonavir", "result": "3.81E+07"},
      {"measurement": "1ST PARENT PEAK AREA", "setting": "human liver cytosol; HL Cytosol w/ NADPH + 50 uM Mefenamic acid", "result": "6.19E+07"},
      {"measurement": "1ST PARENT PEAK AREA", "setting": "human liver cytosol; HL Cytosol w/ NADPH + 100 uM Flufenamic acid", "result": "6.33E+07"},
      {"measurement": "1ST PARENT PEAK AREA", "setting": "human liver cytosol; HL Cytosol w/ NADPH + 100 uM Phenolphthalein", "result": "6.23E+07"},
      {"measurement": "1ST PARENT PEAK AREA", "setting": "human liver cytosol; HL Cytosol w/ NADPH + 200 uM Diflunisal", "result": "6.10E+07"},
      {"measurement": "1ST PARENT PEAK AREA", "setting": "human liver cytosol; HL Cytosol w/ NADPH Vehicle Control", "result": "3.95E+07"},
      {"measurement": "1ST PARENT PEAK AREA", "setting": "human liver cytosol; HL Cytosol w/o NADPH, 20 μM substrate, 60 min, 37° C.", "result": "7.41E+07"},
      {"measurement": "exposure multiple", "setting": "[4]", "result": "≥ 4", "unit": "fold"},
      {"measurement": "exposure", "setting": "[5]", "result": "increases"}
    ]},
    {"molecule": "CC(C)c1nc(CN(C)C(=O)N[C@H](C(=O)N[C@@H](Cc2ccccc2)C[C@H](O)[C@H](Cc2ccccc2)NC(=O)OCc2cncs2)C(C)C)cs1", "note": "[ritonavir]", "values": [
      {"measurement": "half life", "setting": "[6]", "result": "3 to 5", "unit": "h"}
    ]},
    {"molecule": "recombinant human IL-10: recombinant human IL-10 given to HCV positive patients in a Phase II clinical study (protein) SPGQGTQSENSCTHFPGNLPNMLRDLRDAFSRVKTFFQMKDQLDNLLLKESLLEDFKGYLGCQALSEMIQFYLEEVMPQAENQDPDIKAHVNSLGENLKTLRLRLRRCHRFLPCENKSKAVEQVKNAFNKLQEKGIYKAMSEFDIFINYIEAYMTMKIRN", "values": [
      {"measurement": "hepatic fibrosis", "setting": "HCV [7]", "result": "decrease"},
      {"measurement": "viral load", "setting": "HCV [7]", "result": "increase"}
    ]}
  ]
}
